According to patent US20060079566A1, “PDK-1/Akt signaling inhibitors” (priority 2003, published 2006):
Where two headings read alike, the source gives them in different places.

Tests used:
[1] = biological target: T1, recombinant PDK-1 (Homo sapiens, UniProt O15530); assay: PDK-1 kinase activity (Upstate kit, SGK-coupled, cell-free); type: biochemical
T1 construct: purchased Upstate (Lake Placid, N.Y.)
T1 sequence (O15530 1-556): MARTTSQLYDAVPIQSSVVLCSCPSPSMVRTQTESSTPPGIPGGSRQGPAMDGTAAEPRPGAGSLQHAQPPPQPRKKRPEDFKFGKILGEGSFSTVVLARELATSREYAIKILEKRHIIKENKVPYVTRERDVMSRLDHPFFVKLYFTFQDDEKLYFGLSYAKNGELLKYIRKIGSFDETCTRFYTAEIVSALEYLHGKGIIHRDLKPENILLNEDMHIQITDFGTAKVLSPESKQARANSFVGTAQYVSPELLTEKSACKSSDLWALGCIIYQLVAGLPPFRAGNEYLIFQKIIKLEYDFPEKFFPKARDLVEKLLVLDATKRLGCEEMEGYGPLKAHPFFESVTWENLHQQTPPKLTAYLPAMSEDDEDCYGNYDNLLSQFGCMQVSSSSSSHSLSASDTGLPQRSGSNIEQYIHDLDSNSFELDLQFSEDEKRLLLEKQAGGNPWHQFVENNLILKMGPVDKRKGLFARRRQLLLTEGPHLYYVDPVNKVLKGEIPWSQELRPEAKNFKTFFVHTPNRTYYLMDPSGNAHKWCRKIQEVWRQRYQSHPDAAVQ
Description: PDK-1 kinase activity This in vitro assay was performed using a PDK-1 kinase assay kit (Upstate, Lake Placid, N.Y.) according to the vendor's instructions. This cell-free assay is based on the ability of recombinant PDK-1, in the presence of DMSO vehicle or the test agent, to activate its downstream kinase serum- and glucocorticoid-regulated kinase (SGK.) which, in turn, phosphorylates the Akt/SGK-specific peptide substrate RPRAATF with [γ-^32]-ATP. […] The reported values represent the means of two independent determinations.

[2] = test system: PC-3 cells; assay: Cell viability analysis (MTT) in PC-3 cells; type: cell-based, human; conditions: Homo sapiens; inducing apoptotic death in PC-3 cells / PC-3 cell viability; read-out: IC50 PC-3
Description: Cell Culture PC-3 (p53−/−) human androgen-nonresponsive prostate cancer cells were purchased from the American […] (Manassas, Va.). Cells were cultured in RPMI 1640 medium (Gibco, Grand Island, N.Y.) supplemented with 10% fetal bovine serum (FBS; Gibco) at 37° C. in a humidified incubator containing 5% CO2.
Cell viability analysis The effect of 4-[5-(4-methylphenyl)-3-(trifluoromethyl)-1H-pyrazol-1-yl]benzenesulfonamide and its derivatives on PC-3 cell viability was assessed by using the MTT {[3-(4,5-dimethylthiazol-2-yl)-2,5-diphenyl-2H-tetrazolium bromide]} assay in six replicates. Cells were grown in 10% FBS-supplemented RPMI 1640 medium in 96-well, flat bottomed plates for 24 h, and were exposed to various concentrations of compounds 1-36 dissolved in DMSO (final concentration ≦0.1%) in 1% serum-containing RPMI 1640 medium for different time intervals. Controls received DMSO vehicle at a concentration equal to that in drug-treated cells. The medium was removed, replaced by 200 μl of 0.5 mg/ml of MTT in 10% FBS-containing RPMI-1640 medium, and cells were incubated in the CO2 incubator at 37° C. for 2 h. Supernatants were removed from the wells, and the reduced MTT dye was solubilized in 200 μL/well DMSO. Absorbance at 570 nm was determined on a plate reader.

[3] = inhibiting recombinant PDK-1 kinase activity, read-out: IC50 PDK-1

Structure (SMILES) | IC50 [1, 3] [µM] | IC50 [2] [µM] | IC50 [1] [µM]
N#CCc1ccc(-n2nc(C(F)(F)F)cc2-c2ccc3c(ccc4ccccc43)c2)cc1 [Compound 67, {4-[5-(2-Phenanthrenyl)-3-(trifluoromethyl)-1H-pyrazol-1-yl]-phenyl}-acetonitrile] | 42 | 25 | 
N=C(NO)c1ccc(-n2nc(C(F)(F)F)cc2-c2ccc3c(ccc4ccccc43)c2)cc1 [Compound 63, 4-[5-(2-Phenanthrenyl)-3-(trifluoromethyl)-1H-pyrazol-1-yl]-N-hydroxybenzamidine] |  | 25 | 40
Cc1ccc(-c2cc(C(F)(F)F)nn2-c2ccc(S(N)(=O)=O)cc2)cc1 [Comparative Compound, 4-[5-(4-methylphenyl)-3-(trifluoromethyl)-1H-pyrazol-1-yl]benzenesulfonamide, reference compound] | 48 | 30 | 
NS(=O)(=O)c1ccc(-n2nc(C(F)(F)F)cc2-c2ccc(-c3cc(Cl)c(Cl)cc3Cl)cc2)cc1 [Compound 49, 4-[5-(2′,4′,5′-trichloro[1,1′-biphenyl]-4-yl)-3(trifluoromethyl)-1H-pyrazol-1-yl]benzenesulfonamide] |  | 5 | 9
NS(=O)(=O)c1ccc(-n2nc(C(F)(F)F)cc2-c2ccc(-c3cc(Cl)cc(Cl)c3)cc2)cc1 [Compound 47, 4-[5-(3′,5′-dichloro[1,1′-biphenyl]-4-yl)-3-(trifluoromethyl)-1H-pyrazol-1-yl]benzenesulfonamide] |  | 10 | 18
[N-]=[N+]=NCCCc1ccc(-c2cc(C(F)(F)F)nn2-c2ccc(S(N)(=O)=O)cc2)cc1 [Compound 40, 4-[5-(4-(3-azidopropyl)phenyl)-3-(trifluoromethyl)-1H-pyrazol-1-yl]benzenesulfonamide] |  | 18 | 34
NC(=O)Nc1ccc(-n2nc(C(F)(F)F)cc2-c2ccc3c(ccc4ccccc43)c2)cc1 [Compound 72, 4-[5-(2-Phenanthrenyl)-3-(trifluoromethyl)-1H-pyrazol-1-yl]phenyl urea] | 40 | 24 | 
Cc1ccc(-c2ccc(-c3cc(C(F)(F)F)nn3-c3ccc(S(N)(=O)=O)cc3)cc2)cc1 [Compound 50, 4-[5-(4′-methyl[1,1′-biphenyl]4-yl)-3-(trifluoromethyl)-1H-1-yl]benzenesulfonamide] |  | 8 | 
NS(=O)(=O)c1ccc(-n2nc(C(F)(F)F)cc2-c2ccc(-c3ccc(CBr)cc3)cc2)cc1 [Compound 52, 4-[5-(4′-bromomethyl[1,1′-biphenyl]-4-yl)-3-(trifluoromethyl)-1H-1-yl]benzenesulfonamide] | 20 | 11 | 
Cc1cc(C)cc(-c2ccc(-c3cc(C(F)(F)F)nn3-c3ccc(S(N)(=O)=O)cc3)cc2)c1 [Compound 53, 4-[5-(3′,5′-dimethyl[1,1;-biphenyl]-4-yl)-3-(trifluoromethyl)-1H-1-yl]benzenesulfonamide] | 17 |  | 
NS(=O)(=O)c1ccc(-n2nc(C(F)(F)F)cc2-c2ccc(CCCBr)cc2)cc1 [Compound 38, 4-[5-(4-(3-bromopropyl)phenyl)-3-(trifluoromethyl)-1H-pyrazol-1-yl]benzenesulfonamide] |  | 17 | 38
NS(=O)(=O)c1ccc(-n2nc(C(F)(F)F)cc2-c2ccc(-c3ccc(Cl)cc3)cc2)cc1 [Compound 46, 4-[5-(4′-chloro[1,1′-biphenyl]-4-yl)-3-(trifluoromethyl)-1H-pyrazol-1-yl]benzenesulfonamide] |  | 9 | 22
CC(C)(C)c1ccc(-c2ccc(-c3cc(C(F)(F)F)nn3-c3ccc(S(N)(=O)=O)cc3)cc2)cc1 [Compound 55, 4-[5-(4′-tert-buty[1,1′-biphenyl]-4-yl)-3-(trifluoromethyl)-1H-1-yl]benzenesulfonamide] | 32 | 15 | 
NS(=O)(=O)c1ccc(-n2nc(C(F)(F)F)cc2-c2c[nH]c3ccccc23)cc1 [Compound 44, 4-[5-(3-indolyl)-3(trifluoromethyl)-1H-pyrazol-1-yl]benzenesulfonamide] |  | 31 | 65
NS(=O)(=O)c1ccc(-n2nc(C(F)(F)F)cc2-c2ccc3c(c2)Cc2ccccc2-3)cc1 [Compound 57, 4-[5-(9H-fluoren-2-yl)-3-(trifluoromethyl)-1H-1-yl]benzenesulfonamide] | 16 |  | 
NS(=O)(=O)c1ccc(-n2nc(C(F)(F)F)cc2-c2ccc(CCBr)cc2)cc1 [Compound 37, 4-[5-(4-(2-bromoethyl)phenyl)-3-(trifluoromethyl)-1H-pyrazol-1-yl]benzenesulfonamide] |  | 18 | 42
NC(=O)c1ccc(-n2nc(C(F)(F)F)cc2-c2ccc3c(ccc4ccccc43)c2)cc1 [Compound 61, 4-[5-(2-Phenanthracenyl)-3-(trifluoromethyl)-1H-pyrazol-1-yl]-benzenecarboxamide] | 12 | 7 | 
CCCCc1ccc(-c2cc(C(F)(F)F)nn2-c2ccc(S(N)(=O)=O)cc2)cc1 [Compound 41, 4-[5-(4-butylphenyl)-3-(trifluoromethyl)-1H-pyrazol-1-yl]benzenesulfonamide] |  | 9 | 20
NN=Cc1ccc(-n2nc(C(F)(F)F)cc2-c2ccc3c(ccc4ccccc43)c2)cc1 [Compound 66, 4-[5-(2-Phenanthrenyl)-3-(trifluoromethyl)-1H-pyrazol-1-yl]-benzaldehyde hydrazone] | 16 | 10 | 
NS(=O)(=O)c1ccc(-n2nc(C(F)(F)F)cc2-c2ccc(-c3ccccc3)cc2)cc1 [Compound 45] | 21 | 11 | 
NC(Cc1ccc(-n2nc(C(F)(F)F)cc2-c2ccc3c(ccc4ccccc43)c2)cc1)=NO [Compound 68, 2-{4-[5-(2-Phenanthrenyl)-3-(trifluoromethyl)-1H-pyrazol-1-y]-phenyl}-N-hydroxy-acetamidine] |  | 8 | 
NS(=O)(=O)c1ccc(-n2nc(C(F)(F)F)cc2-c2ccc(-c3cccc(Cl)c3Cl)cc2)cc1 [Compound 48, 4-[5-(2′,3′-dichloro[1,1′-biphenyl]-4-yl)-3-(trifluoromethyl)-1H-pyrazol-1-yl]benzenesulfonamide] | 23 | 10 | 
N#Cc1ccc(-n2nc(C(F)(F)F)cc2-c2ccc3c(ccc4ccccc43)c2)cc1 [Compound 62, 4-[5-(2-Phenanthrenyl)-3-(trifluoromethyl)-1H-pyrazol-1-yl]-benzonitrile] | 45 | 30 | 
NS(=O)(=O)c1ccc(-n2nc(C(F)(F)F)cc2-c2ccc(Cc3ccccc3)cc2)cc1 [Compound 56, 4-[5-(4-(phenylmethyl)phenyl)-3-(trifluoromethyl)-1H-1-yl]benzenesulfonamide] |  | 8 | 
O/N=C/c1ccc(-n2nc(C(F)(F)F)cc2-c2ccc3c(ccc4ccccc43)c2)cc1 [Compound 65, 4-5[-(2-Phenanthrenyl)-3-(trifluoromethyl)-1H-pyraxol-1-yl]-benzaldehyde oxime] |  | 14 | 
NS(=O)(=O)c1ccc(-n2nc(C(F)(F)F)cc2-c2cc3ccccc3c3ccccc23)cc1 [Compound 60, 4-[5-(9-phenanthrenyl)-3-(trifluoromethyl)-1H-1-yl]benzenesulfonamide] |  | 23 | 42
[N-]=[N+]=NCCc1ccc(-c2cc(C(F)(F)F)nn2-c2ccc(S(N)(=O)=O)cc2)cc1 [Compound 39, 4-[5-(4-(2-azidoethyl)phenyl)-3-(trifluoromethyl)-1H-pyrazol-1-yl]benzenesulfonamide] |  | 17 | 32
CC(C)(C)c1ccc(-c2cc(C(F)(F)F)nn2-c2ccc(S(N)(=O)=O)cc2)cc1 [Compound 42, 4-[5-(4-t-butylphenyl)-3-(trifluoromethyl)-1H-pyrazol-1-yl]benzenesulfonamide] |  | 18 | 34
CCCCc1ccc(-c2ccc(-c3cc(C(F)(F)F)nn3-c3ccc(S(N)(=O)=O)cc3)cc2)cc1 [Compound 54, 4-[5-(4′-butyl[1,1′-biphenyl]-4-yl)-3-(trifluoromethyl)-1H-1-yl]benzenesulfonamide] | 32 | 15 | 
NS(=O)(=O)c1ccc(-n2nc(C(F)(F)F)cc2-c2c3ccccc3cc3ccccc23)cc1 [Compound 58, 4-[5-(9-anthracenyl)-3-(trifluoromethyl)-1H-1-yl]benzenesulfonamide] | 12 | 7 | 
